In paper PMC6037002, “Drug targeting to decrease cardiotoxicity – determination of the cytotoxic effect of GnRH-based conjugates containing doxorubicin, daunorubicin and methotrexate on human cardiomyocytes and endothelial cells” (Beilstein Journal of Organic Chemistry, 2018):
Like-named read-outs stand apart in the source and are kept apart here.

Tests used:
[1] = test system: human umbilical vein endothelial cells (HUVEC); experiment: Impedimetric measurement (xCELLigence SP), delta slope, HUVEC; conditions: for delta slope (DS), short-term / delta slope (DS), long-term: HUVEC, three parallels; for delta slope (DS), short-term: 0–2 h; for delta slope (DS), long-term: 0–72 h
Description: (§1) The main objective of the study reported here was to evaluate the in vitro cardiotoxic effects (as undesired side effects) of […] GnRH-III-based conjugates containing doxorubicin, daunorubicin and methotrexate on two essential target cells of cardiovascular diseases: vascular endothelial cells and cardiomyocytes. The rate of cytotoxicity (antitumor effect) vs cardiotoxicity (toxic effects on cardiomyocytes and vascular endothelium) is an important factor for efficient drug development for targeted tumor therapy with minimized side effects. The technique used in this work – impedimetry – is a dedicated one for real-time monitoring of cells to distinguish short-term (0–2 hours) and long-term (0–72 hours) effects elicited by the drug or carrier–drug conjugates. The basic theory of impedimetry is that proliferation/viability of cells is well detectable by monitoring of the electric impedance (Z) in an AC environment, due to the electric insulator character of intact surface membranes composed of the phospholipid bilayer. […] While cell physiological responses of short-term exposures result in characteristic changes of cell morphology (e.g., spreading), long-term effects characteristically influence in particular the proliferation of cells, and therefore the cytotoxic effects. The presented dimensionless values of delta slope (DS) measure the difference between the slope of the curve corresponding to the treatment and that of the control curve in impedimetric recordings, the negative signs refer to the relative values to the identical control.
(§2) Experimental part – Cellular samples
(§3) In the present study, GnRH conjugates containing anti-tumour drugs (e.g., daunorubicin, doxorubicin) were investigated in order to evaluate whether the conjugates exert a decrease cardiotoxic effect compared to that of the free drugs. The cardiac myocytes and the vascular endothelium cells are the most frequently detected target cells of antitumor compounds and they are employed in our study. Human umbilical vein endothelial cells (HUVEC; Promocell, Biomedica, Wien, Austria) were cultured in Endothelial Cell Growth Medium with Endothelial Cell Growth Supplement Mix (Promocell, Biomedica, Wien, Austria) and 100 µg/mL penicillin/streptomycin. Primary human cardiac myocytes (HCM; Promocell, Biomedica, Wien, Austria) were cultured in Myocyte Growth Medium (Promocell, Biomedica, Wien, Austria).
(§4) Impedimetric measurements
(§5) The xCELLigence SP system was used for impedimetric measurements. The bottom of the wells of a 96-well E-plate is installed with a golden electrode array that constitutes the adhesion surface. Adhering cells – acting as insulators – change the electric impedance measured on the electrodes. The measured impedance change is in direct correlation with the number of adhering cells and the extent of adhesion. The results of impedance change are given in the form of Cell Index (CI) calculated by the xCELLigence system according to the […]
(§6) where Zt is the measured impedance in a time point, Zb is the background impedance and F is an inbuilt factor (F = 15 at 10 kHz) depending on the frequency of the alternating current. The measurements took place in an incubator holding a 37 °C temperature and 5% carbon-dioxide […]
(§7) The experiments started with a measurement of baseline impedance for 1 hour. After that, the cells (10^4 cells/well) were added to the wells and allowed to adhere to the electrodes. When the adhering cells reached a balanced state in the wells, signified by the impedance curves […]
(§8) free drugs at 10−12 – 10−6 M and the conjugates at 10−8 – 10−6 M final concentrations were […]
(§9) added to the wells. The changes in impedance were measured for at least 72 hours. For each measurement three parallels were measured.
(§10) The evaluation of responses followed the previously described strategy: acute effects of compounds were evaluated as a characteristic morphology of the curves in the 0–2 hours

[2] = test system: primary human cardiac myocytes (HCM); conditions: for delta slope (DS), short-term / delta slope (DS), long-term: HCM, three parallels; for delta slope (DS), short-term: 0–2 h; for delta slope (DS), long-term: 0–72 h
Description: as §1, §2, §3, §4, §5, §6, §7, §8, §9, §10

[3] = test system: human acute monocytic leukemia (MonoMac6) cells; conditions: cited from earlier work
Description: (§11) Table 1 Comparative study of cytotoxic effects and cardiotoxicity elicited by GnRH-based antitumor compounds (1–15) and reference substances (AN-152, Dox, Dau, Mtx). IC50 values show antitumor cytotoxic characteristics of the conjugates in human breast cancer (MCF-7), human colorectal adenocarcinoma (HT-29) and human acute monocytic leukemia (MM6) derived cell lines as representative tumor cells.

[4] = test system: MCF-7 human breast adenocarcinoma cells; conditions: MTT assay; cited from earlier work
Description: as §11

[5] = test system: HT-29 human colon adenocarcinoma cells; conditions: MTT assay; cited from earlier work
Description: as §11

[6] = grade +++/++/+/0, key not given, summary of impedimetric cytotoxicity

| Substance | IC50 [3] | IC50 [4] | IC50 [5] | delta slope (DS), short-term ([1]; Table S2a, 10^-6 mol/L) | delta slope (DS), short-term ([1]; Table S2a, 10^-7 mol/L) | delta slope (DS), short-term ([1]; Table S2a, 10^-8 mol/L) | delta slope (DS), long-term ([1]; Table S2a, 10^-8 mol/L) | delta slope (DS), short-term ([2]; Table S2b, 10^-6 mol/L) | delta slope (DS), short-term ([2]; Table S2b, 10^-7 mol/L) | delta slope (DS), short-term ([2]; Table S2b, 10^-8 mol/L) | delta slope (DS), long-term ([2]; Table S2b, 10^-6 mol/L) | delta slope (DS), long-term ([2]; Table S2b, 10^-8 mol/L) | delta slope (DS), long-term ([2]; Table S2b, 10^-7 mol/L) | further results |
| --- | --- | --- | --- | --- | --- | --- | --- | --- | --- | --- | --- | --- | --- | --- |
| GnRH-III(Dau=Aoa-YRRL) [conjugate 8] | > 1 µM | 1.8 ± 0.5 µM | 28.6 ± 5.5 µM |  |  |  |  |  |  |  |  |  |  | delta slope (DS), short-term ([1]; Table S4a, 10^-6 mol/L): 0.003; delta slope (DS), short-term ([1]; Table S4a, 10^-7 mol/L): -0.004; delta slope (DS), short-term ([1]; Table S4a, 10^-8 mol/L): -0.010; delta slope (DS), long-term ([1]; Table S4a, 10^-6 mol/L): −0.018; delta slope (DS), long-term ([1]; Table S4a, 10^-7 mol/L): -0.002; delta slope (DS), long-term ([1]; Table S4a, 10^-8 mol/L): -0.007; delta slope (DS), short-term ([2]; Table S4b, 10^-6 mol/L): -0.002; delta slope (DS), short-term ([2]; Table S4b, 10^-7 mol/L): -0.001; delta slope (DS), short-term ([2]; Table S4b, 10^-8 mol/L): -0.003; delta slope (DS), long-term ([2]; Table S4b, 10^-6 mol/L): −0.004; delta slope (DS), long-term ([2]; Table S4b, 10^-7 mol/L): -0.002; delta slope (DS), long-term ([2]; Table S4b, 10^-8 mol/L): -0.001 |
| GnRH-III(Dox-O-glut) [conjugate 1] | 0.039 ± 0.01 µM | 0.1 ± 0.1 µM | 2.4 ± 0.2 µM | 0.038 | 0.016 | -0.011 | -0.003 | 0.012 | 0.002 | 0.001 | −0.025 | −0.002 |  | delta slope (DS), long-term ([1]; Table S2a, 10^-6 mol/L, listed as 1): -0.054; delta slope (DS), long-term ([1]; Table S2a, 10^-6 mol/L, listed as GnRH-III(Dox-O-glut)): −0.054; delta slope (DS), long-term ([1]; Table S2a, 10^-7 mol/L, listed as 1): -0.028; delta slope (DS), long-term ([1]; Table S2a, 10^-7 mol/L, listed as GnRH-III(Dox-O-glut)): −0.028 |
| GnRH-III(Dox-glut-GFLG) [conjugate 2] | 0.089 ± 0.02 µM | > 100 µM | > 100 µM | 0.058 | 0.016 | -0.004 | -0.002 | 0.008 | 0.003 | 0.009 | −0.019 | 0.001 | −0.004 | delta slope (DS), long-term ([1]; Table S2a, 10^-6 mol/L, listed as 2): -0.042; delta slope (DS), long-term ([1]; Table S2a, 10^-6 mol/L, listed as GnRH-III(Dox-glut-GFLG)): −0.042; delta slope (DS), long-term ([1]; Table S2a, 10^-7 mol/L, listed as 2): -0.017; delta slope (DS), long-term ([1]; Table S2a, 10^-7 mol/L, listed as GnRH-III(Dox-glut-GFLG)): −0.017 |
| GnRH-III(Dox=Aoa-GFLG) [conjugate 3] | 0.43 ± 0.04 µM | 5.4 ± 1.9 µM | 46.1 ± 6.1 µM | -0.006 | -0.003 | -0.002 | 0.0004 | -0.002 | 0.001 | 0.004 | −0.007 | 0.002 | -0.001 | delta slope (DS), long-term ([1]; Table S2a, 10^-6 mol/L, listed as 3): -0.009; delta slope (DS), long-term ([1]; Table S2a, 10^-6 mol/L, listed as GnRH-III(Dox=Aoa-GFLG)): −0.009; delta slope (DS), long-term ([1]; Table S2a, 10^-7 mol/L): -0.001 |
| GnRH-III(Mtx-K(Dau=Aoa)) [conjugate 13] | 1.41 ± 0.39 µM | 5.4 ± 0.7 µM | 5.6 ± 3 µM |  |  |  |  |  |  |  |  |  |  | delta slope (DS), short-term ([1]; Table S5a, 10^-6 mol/L): 0.013; delta slope (DS), short-term ([1]; Table S5a, 10^-7 mol/L): 0.002; delta slope (DS), short-term ([1]; Table S5a, 10^-8 mol/L): 0.001; delta slope (DS), long-term ([1]; Table S5a, 10^-6 mol/L): 0.001; delta slope (DS), long-term ([1]; Table S5a, 10^-7 mol/L): 0.001; delta slope (DS), long-term ([1]; Table S5a, 10^-8 mol/L): -0.001; Cardiotoxicity, HUVEC [1, 6]: 0; cytotoxic effect on HUVEC, result in words ([1]; long-term (0–72 h), 10^−8–10^−6 mol/L, impedimetry, one-way ANOVA): no significant effect was detected; delta slope (DS), short-term ([2]; Table S5b, 10^-6 mol/L): -0.003; delta slope (DS), short-term ([2]; Table S5b, 10^-7 mol/L): 0.002; delta slope (DS), short-term ([2]; Table S5b, 10^-8 mol/L): -0.002; delta slope (DS), long-term ([2]; Table S5b, 10^-6 mol/L): -0.001; delta slope (DS), long-term ([2]; Table S5b, 10^-7 mol/L): -0.001; delta slope (DS), long-term ([2]; Table S5b, 10^-8 mol/L): -0.001; Cardiotoxicity, HCM [2, 6]: 0; cytotoxic effect on HCM, result in words ([2]; long-term (0–72 h), 10^−8–10^−6 mol/L (free drugs 10^−12–10^−6 mol/L), impedimetry, one-way ANOVA): none of the two investigated mixed drug–GnRH-III conjugates (13 and 15) exerted any significant cytotoxic effect |
